Assay results: PMC4992410 (ACS chemical biology, 2016)

Tested on: full-length IRE1α in INS-1 rat insulinoma cells
Experiment: XBP1 mRNA splicing in INS-1 cells
Assay type: cell-based
Settings: absence of ER stress; for spliced cellular XBP1 mRNA levels: 3 and 10 μM, 2 hours

Row | SMILES | spliced cellular XBP1 mRNA levels | spliced XBP1 mRNA level compared with 0.5 μg/mL tunicamycin
1 | O=C(Nc1c[nH]nc1-c1nc2ccc(CN3CCOCC3)cc2[nH]1)NC1CC1 [AT9283] | increase in spliced cellular XBP1 mRNA levels | equal or greater level
2 | NC(=O)Nc1cc(-c2cccc(F)c2)sc1C(=O)N[C@H]1CCCNC1 [AZD7762] | increase in spliced cellular XBP1 mRNA levels | –
3 | COc1cc(N2CCC(N3CCN(C)CC3)CC2)ccc1Nc1ncc(Cl)c(Nc2ccccc2P(C)(C)=O)n1 [AP26113] | increase in spliced cellular XBP1 mRNA levels | equal or greater level
4 | COc1cc(N2CCC(N3CCN(C)CC3)CC2)ccc1Nc1ncc(Cl)c(Nc2ccccc2S(=O)(=O)C(C)C)n1 [TAE684] | increase in spliced cellular XBP1 mRNA levels | –
